Patent US10836756B2, “Crystalline salts of peptide epoxyketone immunoproteasome inhibitor” (KEZAR LIFE SCIENCES, priority 2016, dated 2020)
Counter-ions that a name gives are not always drawn. Like-named read-outs stand apart in the source and are kept apart here.

How the values were obtained:
[1] = pKa of the monomaleate salt; format: physicochemical
[2] = Solubility of compound G (amorphous) and its monomaleate salt (crystalline) in water, buffers and solvents; format: physicochemical
[3] = Olovson et al. 1986, Kumar et al. 2013; cited from earlier work
[4] = Stability of Form A and its freebase, one month storage; format: physicochemical; settings: for % Decomposition: 1 month
Description: The stability of Form A and its freebase was tested at ambient conditions (25° C. and 40% relative humidity, “RH”), and at elevated temperature and humidity (40° C. and 75% RH) over the duration of one month.

COc1ccc([C@@H](O)[C@H](NC(=O)[C@H](C)NC(=O)CN2CCOCC2)C(=O)N[C@@H](CC2=CCCC2)C(=O)[C@@]2(C)CO2)cc1 [monomaleate salt of compound G]
pKa [1]: 5 | solubility ([2]; 2-methyltetrahydrofuran, organic solvent or mixture, 2-Methyltetrahydrofuran, crystalline, read-out: Solubility): 1760 µg/mL | solubility ([2]; acetone, organic solvent or mixture, Acetone, crystalline, read-out: Solubility): 3190 µg/mL | solubility ([2]; acetonitrile, organic solvent or mixture, Acetonitrile (ACN), crystalline, read-out: Solubility): 1300 µg/mL | solubility ([2]; aqueous medium, aqueous, read-out: aqueous solubility): > 100000 µg/mL | solubility ([2]; dichloromethane, organic solvent or mixture, Dichloromethane (DCM), crystalline, read-out: Solubility): 210 µg/mL | solubility ([2]; ethanol, organic solvent or mixture, Ethanol (EtOH), crystalline, read-out: Solubility): 6970 µg/mL | solubility ([2]; ethyl acetate, organic solvent or mixture, Ethyl acetate (EA), crystalline, read-out: Solubility): 470 µg/mL | solubility ([2]; isopropanol, organic solvent or mixture, Isopropanol (IPA), crystalline, read-out: Solubility): 3280 µg/mL | solubility ([2]; isopropyl acetate, organic solvent or mixture, Isopropyl acetate (IPAc), crystalline, read-out: Solubility): 130 µg/mL | solubility ([2]; methanol, organic solvent or mixture, Methanol (MeOH), crystalline, read-out: Solubility): 42100 µg/mL | solubility ([2]; methyl tert-butyl ether, organic solvent or mixture, Methyl tert-butyl ether (MTBE), crystalline, read-out: Solubility): 170 µg/mL | solubility ([2]; tetrahydrofuran, organic solvent or mixture, Tetrahydrofuran (THF), crystalline, read-out: Solubility): 1960 µg/mL | solubility ([2]; toluene, organic solvent or mixture, Toluene, crystalline, read-out: Solubility): 20 µg/mL | solubility ([2]; water, ambient temperature (e.g., 20° C. to 25° C.), read-out: solubility in water): > 100000 µg/mL

C=CCc1ccccc1OCC(O)CNC(C)C (stereo not drawn) [alprenolol]
solubility of the maleate salt compared to other counterions, such as fumarate [3]: decreased solubility

COc1ccc([C@@H](O)[C@H](NC(=O)[C@H](C)NC(=O)CN2CCOCC2)C(=O)N[C@@H](CC2=CCCC2)C(=O)[C@@]2(C)CO2)cc1 [compound G, (2S,3R)—N-[(2S)-3-(cyclopent-1-en-1-yl)-1-[(2R)-2-methyloxiran-2-yl]-1-oxopropan-2-yl]-3-hydroxy-3-(4-methoxyphenyl)-2-[(2S)-2-[2-(morpholin-4-yl)acetamido]propanamido]propanamide]
% Decomposition ([4]; 25° C./40% RH, lot 1): 1.9% | % Decomposition ([4]; 25° C./40% RH, lot 2): 1.6% | % Decomposition ([4]; 25° C./40% RH, lot 3): 1.4% | % Purity at 1 Month ([4]; 25° C./40% RH, lot 1 (purity at t = 0 95.1)): 93.2% | % Purity at 1 Month ([4]; 25° C./40% RH, lot 2 (purity at t = 0 85.6)): 84.0% | % Purity at 1 Month ([4]; 25° C./40% RH, lot 3 (purity at t = 0 93.7)): 92.3% | stability at elevated temperature and humidity (in words) ([4]; 40° C. and 75% RH, one month): rapid decomposition | % Decomposition ([4]; 40° C./75% RH, lot 1): 67.5% | % Decomposition ([4]; 40° C./75% RH, lot 2): 28.8% | % Decomposition ([4]; 40° C./75% RH, lot 3): 21.1% | % Purity at 1 Month ([4]; 40° C./75% RH, lot 1 (purity at t = 0 95.1)): 92.3% | % Purity at 1 Month ([4]; 40° C./75% RH, lot 2 (purity at t = 0 85.6)): 92.3% | % Purity at 1 Month ([4]; 40° C./75% RH, lot 3 (purity at t = 0 93.7)): 72.5% | solubility ([2]; 25 mM Na citrate buffer, pH 4.9, aqueous buffer, 25 mM Na Citrate, pH 4.9, amorphous, read-out: Solubility): 46000 µg/mL | solubility ([2]; 25 mM Na citrate buffer, pH 5.1, aqueous buffer, 25 mM Na Citrate, pH 5.1, amorphous, read-out: Solubility): 32000 µg/mL | solubility ([2]; 25 mM Na citrate buffer, pH 5.2, aqueous buffer, 25 mM Na Citrate, pH 5.2, amorphous, read-out: Solubility): 24800 µg/mL | solubility ([2]; 25 mM Na citrate buffer, pH 5.4, aqueous buffer, 25 mM Na Citrate, pH 5.4, amorphous, read-out: Solubility): 19500 µg/mL | solubility ([2]; 25 mM Na citrate buffer, pH 5.8, aqueous buffer, 25 mM Na Citrate, pH 5.8, amorphous, read-out: Solubility): 11200 µg/mL | solubility ([2]; 25 mM Na citrate buffer, pH 6.3, aqueous buffer, 25 mM Na Citrate, pH 6.3, amorphous, read-out: Solubility): 9800 µg/mL | solubility ([2]; 25 mM Na citrate buffer, pH 6.8, aqueous buffer, 25 mM Na Citrate, pH 6.8, amorphous, read-out: Solubility): 8800 µg/mL | solubility ([2]; 0.9% saline, pH 7.6, saline or isotonic, 0.9% saline, pH 7.6, amorphous, read-out: Solubility): 9400 µg/mL | solubility ([2]; 10% EtOH, aqueous with cosolvent or surfactant or cyclodextrin, EtOH, 10%, amorphous, read-out: Solubility): 13700 µg/mL | solubility ([2]; 10% NMP, aqueous with cosolvent or surfactant or cyclodextrin, NMP, 10%, amorphous, read-out: Solubility): 28800 µg/mL | solubility ([2]; 10% PEG 400, aqueous with cosolvent or surfactant or cyclodextrin, PEG 400, 10%, amorphous, read-out: Solubility): 11800 µg/mL | solubility ([2]; 10% PG, aqueous with cosolvent or surfactant or cyclodextrin, PG, 10%, amorphous, read-out: Solubility): 12100 µg/mL | solubility ([2]; 10% glycerol, aqueous with cosolvent or surfactant or cyclodextrin, glycerol, 10%, amorphous, read-out: Solubility): 8600 µg/mL | solubility ([2]; 33% EtOH, aqueous with cosolvent or surfactant or cyclodextrin, EtOH, 33%, amorphous, read-out: Solubility): 20000 µg/mL | solubility ([2]; 33% NMP, aqueous with cosolvent or surfactant or cyclodextrin, NMP, 33%, amorphous, read-out: Solubility): > 100000 µg/mL | solubility ([2]; 33% PEG 400, aqueous with cosolvent or surfactant or cyclodextrin, PEG 400, 33%, amorphous, read-out: Solubility): 17400 µg/mL | solubility ([2]; 33% PG, aqueous with cosolvent or surfactant or cyclodextrin, PG, 33%, amorphous, read-out: Solubility): 20500 µg/mL | solubility ([2]; 33% glycerol, aqueous with cosolvent or surfactant or cyclodextrin, glycerol, 33%, amorphous, read-out: Solubility): 5800 µg/mL | solubility ([2]; 67% EtOH, aqueous with cosolvent or surfactant or cyclodextrin, EtOH, 67%, amorphous, read-out: Solubility): > 100000 µg/mL | solubility ([2]; 67% NMP, aqueous with cosolvent or surfactant or cyclodextrin, NMP, 67%, amorphous, read-out: Solubility): > 100000 µg/mL | solubility ([2]; 67% PEG 400, aqueous with cosolvent or surfactant or cyclodextrin, PEG 400, 67%, amorphous, read-out: Solubility): > 50000 µg/mL | solubility ([2]; 67% PG, aqueous with cosolvent or surfactant or cyclodextrin, PG, 67%, amorphous, read-out: Solubility): > 100000 µg/mL | solubility ([2]; 67% glycerol, aqueous with cosolvent or surfactant or cyclodextrin, glycerol, 67%, amorphous, read-out: Solubility): 5400 µg/mL | solubility ([2]; 100% EtOH, organic solvent or mixture, EtOH, 100%, amorphous, read-out: Solubility): > 100000 µg/mL | solubility ([2]; 100% NMP, organic solvent or mixture, NMP, 100%, amorphous, read-out: Solubility): > 100000 µg/mL | solubility ([2]; 100% PEG 400, organic solvent or mixture, PEG 400, 100%, amorphous, read-out: Solubility): > 50000 µg/mL | solubility ([2]; 100% PG, organic solvent or mixture, PG, 100%, amorphous, read-out: Solubility): > 100000 µg/mL | solubility ([2]; PBS, pH 7.2, aqueous buffer, PBS, pH 7.2, amorphous, read-out: Solubility): 7600 µg/mL | solubility ([2]; glycerol, 100%, amorphous): not soluble | solubility ([2]; water, pH 7.4, water, Water, pH 7.4, amorphous, read-out: Solubility): 8900 µg/mL | solubility ([2]; water, read-out: solubility in water): 8900 µg/mL
